Holding throughout (format): biochemical
The target of one assay is T1, α-chymotrypsin (Bos taurus, UniProt P00766).
T1 construct: purchased Sigma Chem. Co. C-3142
Put plainly: Inhibition of α-chymotrypsin (serine protease) activity. Conditions: 10 μM inhibitor; 0.03 mM SuccAla-Ala-Pro-Phe-AMC, pH 7.5; read-out: Chymotrypsin % I @ 10 μM. How it is done: (§1) To evaluate inhibitory activity, stock solutions (40 times concentrated) of each compound to be tested were prepared in 100% anhydrous DMSO and 5 μL of each inhibitor preparation were aliquoted into each of three wells of a 96-well plate. Calpain I, prepared by a modification of the method of W. J. Lee et al. (Biochem. Internatl. 22: 163-171 (1990)), was diluted into assay buffer (i.e., 50 mM Tris, 50 mM NaCl, 1 mM EDTA, 1 mM EGTA, and 5 mM β-mercaptoethanol, pH 7.5 including 0.2 mM Succ-Leu-Tyr-MNA) and 175 μL aliquoted into the same wells containing the independent inhibitor stocks, as well as to positive control wells containing 5 μL DMSO, but no compound. To start the reaction, 20 μL of 50 mM CaCl2 in assay buffer was added to all wells of the plate, excepting three, which were used as background signal baseline controls. Substrate hydrolysis was monitored every 5 minutes for a total of 30 minutes using a Fluoroskan II fluorescence plate reader. Substrate hydrolysis in the absence of inhibitor was linear for up to 15 minutes.
(§2) Inhibition of calpain I activity was calculated as the percent decrease in the rate of substrate hydrolysis in the presence of inhibitor relative to the rate in its absence. Comparison between the inhibited and control rates was made within the linear range for substrate hydrolysis. For screening, compounds were tested at 10 μm. Compounds having 50% inhibition at 10 μM were considered active. The IC50s of inhibitors (i.e., the concentration yielding 50% inhibition) were determined from the percent decrease in the rates of substrate hydrolysis in the presence of five to seven different concentrations of the test compound. The results were plotted as % inhibition versus log inhibitor concentration and the IC50 was calculated from linear regression of the data.
(§3) Additionally,because α-chymotrypsin is not a calcium sensitive enzyme and is constitutively active, following addition of inhibitor stocks to the 96 well plates, 100 μl of a 2-fold concentrated stock of enzyme in dilution buffer was first added and the reaction started by addition of 10 μl of a 2-fold concentrated stock of substrate in assay buffer. Substrate hydrolysis was monitored every 5 minutes up to 30 minutes using a Fluoroskan II ([…]). The result is expressed as inhibition of α-chymotrypsin at 10 μM.

Another assay addresses T2, cathepsin B (Homo sapiens, UniProt P07858).
T2 construct: purchased Calbiochem 219364
The assay is described as follows: Inhibition of cathepsin B (cysteine protease) activity. Conditions: 0.1 mM Cbz-Phe-Arg-AMC, pH 6.0; read-out: Cat B IC50. How it is done:
To evaluate inhibitory activity, stock solutions (40 times concentrated) of each compound to be tested were prepared in 100% anhydrous DMSO and 5 μL of each inhibitor preparation were aliquoted into each of three wells of a 96-well plate. Calpain I, prepared by a modification of the method of W. J. Lee et al. (Biochem. […] To start the reaction, 20 μL of 50 mM CaCl2 in assay buffer was added to all wells of the plate, excepting three, which were used as background signal baseline controls. Substrate hydrolysis was monitored every 5 minutes for a total of 30 minutes using a Fluoroskan II fluorescence plate reader. Substrate hydrolysis in the absence of inhibitor was linear for up to 15 minutes. Inhibition of calpain I activity was calculated as the percent decrease in the rate of substrate hydrolysis in the presence of inhibitor relative to the rate in its absence. Comparison between the inhibited and control rates was made within the linear range for substrate hydrolysis. For screening, compounds were tested at 10 μm. Compounds having 50% inhibition at 10 μM were considered active. […] The results were plotted as % inhibition versus log inhibitor concentration and the IC50 was calculated from linear regression of the data. […] Additionally, the order of reagents added to the plate was altered because both enzymes are constitutively active. Following inhibitor addition to the plates, appropriate 2× concentrated stock dilutions of the enzyme preparations were made in assay buffer and 10 ul added to each well. The assay was initiated by addition of 100 ul of 2× concentrated stock dilution of substrate in assay buffer. Substrate hydrolysis was monitored using a Fluoroskan II (ex=390 nm; em=460 nm).

The target in the next assay is T3, thrombin (Homo sapiens, UniProt P00734).
T3 construct: purchased Sigma Chem. Co. T-7009
Put plainly: Inhibition of thrombin (serine protease) activity. To be noted: 10 μM inhibitor; 25 μM Bz-Phe-Val-Arg-AMC, pH 7.5; read-out: Thrombin % I @ 10 μM. The procedure:
as §3
Inhibition of thrombin (Sigma Chem. Co. Cat. #T-7009) was evaluated as described for chymotrypsin except that the assay was performed in 50 mM Tris, 10 mM CaCl2, pH 7.5 and the substrate was 25 μM Bz-Phe-Val-Arg-AMC (Bachem cat#I-1080).

In the next assay the target is T4, Calpain I (Homo sapiens, UniProt P07384).
T4 construct: made in house
T4 sequence (P07384 1-714): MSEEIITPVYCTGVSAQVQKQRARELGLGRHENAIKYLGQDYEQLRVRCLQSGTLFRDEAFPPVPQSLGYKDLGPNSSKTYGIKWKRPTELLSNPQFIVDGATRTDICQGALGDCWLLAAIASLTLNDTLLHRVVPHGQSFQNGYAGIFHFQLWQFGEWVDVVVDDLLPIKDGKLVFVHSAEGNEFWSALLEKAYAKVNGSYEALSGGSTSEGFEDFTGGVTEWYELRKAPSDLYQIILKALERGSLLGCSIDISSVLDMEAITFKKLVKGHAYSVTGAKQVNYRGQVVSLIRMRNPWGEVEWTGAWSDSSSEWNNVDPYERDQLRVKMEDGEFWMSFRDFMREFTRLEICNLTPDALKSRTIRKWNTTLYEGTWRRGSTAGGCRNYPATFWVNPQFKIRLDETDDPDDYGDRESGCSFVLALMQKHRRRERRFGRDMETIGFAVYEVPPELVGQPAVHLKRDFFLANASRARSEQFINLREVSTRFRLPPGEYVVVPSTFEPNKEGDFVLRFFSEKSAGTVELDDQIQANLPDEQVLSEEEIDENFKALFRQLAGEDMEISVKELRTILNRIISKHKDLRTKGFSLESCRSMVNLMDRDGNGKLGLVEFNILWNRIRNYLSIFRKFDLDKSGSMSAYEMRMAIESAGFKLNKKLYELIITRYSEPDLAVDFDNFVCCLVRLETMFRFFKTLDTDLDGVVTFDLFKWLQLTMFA
T4 sequence (P04632 1-268 partner): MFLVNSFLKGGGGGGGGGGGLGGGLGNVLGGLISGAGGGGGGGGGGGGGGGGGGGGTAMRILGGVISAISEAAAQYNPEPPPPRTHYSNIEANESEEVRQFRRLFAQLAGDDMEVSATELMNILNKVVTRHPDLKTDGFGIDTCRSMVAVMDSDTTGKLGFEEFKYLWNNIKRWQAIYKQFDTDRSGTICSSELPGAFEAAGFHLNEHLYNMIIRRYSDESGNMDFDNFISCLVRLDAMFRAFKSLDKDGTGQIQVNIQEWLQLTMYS
Put plainly: Inhibition of calpain I (cysteine protease) activity. Conditions: 0.2 mM Succ-Leu-Tyr-MNA, pH 7.5, CaCl2 start. The procedure: To evaluate inhibitory activity, stock solutions (40 times concentrated) of each compound to be tested were prepared in 100% anhydrous DMSO and 5 μL of each inhibitor preparation were aliquoted into each of three wells of a 96-well plate. Calpain I, prepared by a modification of the method of W. J. Lee et al. (Biochem. […] To start the reaction, 20 μL of 50 mM CaCl2 in assay buffer was added to all wells of the plate, excepting three, which were used as background signal baseline controls. Substrate hydrolysis was monitored every 5 minutes for a total of 30 minutes using a Fluoroskan II fluorescence plate reader. Substrate hydrolysis in the absence of inhibitor was linear for up to 15 minutes. Inhibition of calpain I activity was calculated as the percent decrease in the rate of substrate hydrolysis in the presence of inhibitor relative to the rate in its absence. Comparison between the inhibited and control rates was made within the linear range for substrate hydrolysis. For screening, compounds were tested at 10 μm. Compounds having 50% inhibition at 10 μM were considered active. […] The results were plotted as % inhibition versus log inhibitor concentration and the IC50 was calculated from linear regression of the data.

For the next assay, the target named is T5, cathepsin L (Homo sapiens, UniProt P07711).
T5 construct: purchased Calbiochem 219402
T5 sequence (P07711 114-288 limits assumed): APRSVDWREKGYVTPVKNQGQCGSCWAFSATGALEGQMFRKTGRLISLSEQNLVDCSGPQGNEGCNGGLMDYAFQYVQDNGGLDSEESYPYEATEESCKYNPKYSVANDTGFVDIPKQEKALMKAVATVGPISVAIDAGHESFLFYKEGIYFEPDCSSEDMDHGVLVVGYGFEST
T5 sequence (P07711 292-333 limits assumed): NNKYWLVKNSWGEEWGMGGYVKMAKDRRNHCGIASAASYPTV
Put plainly: Inhibition of cathepsin L (cysteine protease) activity. Conditions: 0.006 mM Cbz-Phe-Arg-AMC, pH 6.0; read-out: Cat L IC50. The procedure:
as §1, §2
Additionally, the order of reagents added to the plate was altered because both enzymes are constitutively active. Following inhibitor addition to the plates, appropriate 2× concentrated stock dilutions of the enzyme preparations were made in assay buffer and 10 ul added to each well.
The assay was initiated by addition of 100 ul of 2× concentrated stock dilution of substrate in assay buffer. Substrate hydrolysis was monitored using a Fluoroskan II (ex=390 nm; em=460 nm).

This is an account of results in patent US5744339A, “Thiomethylene group-containing aldehyde cysteine and serine protease inhibitors” (Cephalon, Inc., priority 1996, dated 1998).

In general, IC50 refers to the concentration needed to halve the response being measured.

As for `CC(C)C[C@@H](CCS(=O)(=O)c1ccc2ccccc2c1)C(=O)N[C@H](C=O)CC(C)C` [Compound 9, 2-Naphthylsulfonyl--CH2 CH2 CH(iBu)CO--Leu--H], the inhibition at 10 µM at α-chymotrypsin was 12%; on thrombin it was 2%. The IC50 on cathepsin B amounted to 4500 nM; on Calpain I it was 500 nM; on cathepsin L, 32 nM.

In the case of `CC(C)C[C@H](CCS(=O)(=O)c1ccc2ccccc2c1)C(=O)N[C@H](C=O)CC(C)C` [Compound 10, 2-Naphthylsulfonyl--CH2 CH2 CH(iBu)CO--Leu--H], the inhibition at 10 µM on α-chymotrypsin came to 11%; at thrombin, 1%. For the same molecule, the figures for the IC50 on cathepsin B, at Calpain I and on cathepsin L were 150 nM, 50 nM and 3 nM, respectively.

Take `CC(C)CC(CCSc1ccc2ccccc2c1)C(=O)N[C@H](C=O)CC(C)C` (some centres unmarked) [Compound 11, 2-Naphthyl--SCH2 CH2 CH(iBu)CO--Leu--H]: the results for the inhibition at 10 µM at α-chymotrypsin and at thrombin were 11% and 5%, respectively. Further, the IC50 was 60 nM at cathepsin B, 75 nM against Calpain I and 8 nM on cathepsin L.

As for `CC(C)CC(CC[S+]([O-])c1ccc2ccccc2c1)C(=O)N[C@H](C=O)CC(C)C` (some centres unmarked) [Compound 13, 2-Naphthyl--S(O)--CH2 CH2 CH(iBu)CO--Leu--H], the inhibition at 10 µM on α-chymotrypsin stood at 18%; at thrombin it was 2%. The IC50 came out at 60 nM at cathepsin B, 30 nM against Calpain I and 3 nM on cathepsin L.
